Results on two compounds are retold here after US5021551A, “Method of enhancing peptide immunogenicity” (Washington University, priority 1989, dated 1991).

“Also recorded” adds a separate entry of the source. Peptide text beside a SMILES is read from it.

Common to all, as to assay type: cell-based
For test [1], the system named is 18N.30 T cell hybridoma (HEL (34-45) specific). As to the kind of experiment: T cell stimulation assay, 18N.30 hybridoma, fixed TA3 antigen-presenting cells. Conditions: FIG. 2. The protocol: (§1) FIG. 2a and 2b are graphical representation which show the stimulation of two T cell hybridomas, A6.A2 ([…]) and 18N.30 ([…]), that react with a modified T cell immunogenic peptide 34-45NH.sbsb.2 ( ) in another embodiment of the invention compared to normal peptide HEL (34-45) ( ). The assay was performed as described hereinafter in Materials and Methods of the Examples except fixed TA3 cells were used as the source of antigen-presenting cell.
(§2) The level of T cell stimulation was determined as previously described in detail by Allen and Unanue, J. Immunol. 132, 1077 (1984). In general, the level of T cell stimulation was determined by quantitating the amount of IL-2 produced by the T cell hybridomas. IL-2 was bioassayed by determining the level of ^3 H-Thymidine incorporation of the IL-2 dependent cell line, CTLL, 24 hours after culture in the test culture media. The source of antigen presenting cells were either peptone elicited peritoneal macrophages from CBA/J mice previously infected with Listeria monocytogenes or the B cell hybridoma, TA3 [Allen and Unanue, Id.; Allen et al, Proc. Natl. Acad. Sci. USA 81, 2489 (1984)]. […]
(§3) It was also determined whether the changes that enhanced the immunogenicity of HEL (52-61) could be extrapolated to another peptide of HEL which had been previously studied, namely the peptide comprising residues 34-45 [Allen et al, Immun. […]

Test [2] relates to A6.A2 T cell hybridoma (HEL (34-45) specific). In words: T cell stimulation assay, A6.A2 hybridoma, fixed TA3 antigen-presenting cells. Conditions: FIG. 2. The method, then:
as §1, §2, §3

The test system of test [3] is 3A9 T cell hybridoma (HEL(52-61) specific). In words: T cell stimulation assay (IL-2 release, CTLL bioassay), 3A9 hybridoma. The protocol:
(§4) The level of T cell stimulation was determined as previously described in detail by Allen and Unanue, J. Immunol. 132, 1077 (1984). In general, the level of T cell stimulation was determined by quantitating the amount of IL-2 produced by the T cell hybridomas. IL-2 was bioassayed by determining the level of ^3 H-Thymidine incorporation of the IL-2 dependent cell line, CTLL, 24 hours after culture in the test culture media. The source of antigen presenting cells were either peptone elicited peritoneal macrophages from CBA/J mice previously infected with Listeria monocytogenes or the B cell hybridoma, TA3 [Allen and Unanue, Id.; Allen et al, Proc. Natl. Acad. Sci. USA 81, 2489 (1984)]. Both sources of antigen presenting cells were fixed with paraformaldehyde prior to exposure to antigen.
(§5) The relative stimulatory capacity of derivatives of HEL (52-61) are shown. The relative stimulatory capacity of a peptide was determined by the relative shift in the concentration of antigen required for a 50% maximal response. For example, 300 fold less ^- 52-61^+. was required for a 50% maximal response than 52-61 with 3A9 T cells. The stimulation of 3A9 and 2All, two HEL (46-61) specific T cells, was determined as described in Materials and Methods. This test was performed three times, with identical results. A representative test is shown.

Test [4] relates to 2A11 T cell hybridoma (HEL(52-61) specific). As to the kind of experiment: T cell stimulation assay (IL-2 release, CTLL bioassay), 2A11 hybridoma. The settings on record: relative shift in antigen concentration required for 50% maximal response; 52-61 = 1. The protocol: as §4, §5

Consider `C[C@H](NC(=O)[C@H](CCC(N)=O)NC(=O)[C@@H](NC(=O)[C@H](CC(N)=O)NC(=O)[C@H](Cc1ccccc1)NC(=O)[C@H](CC(N)=O)NC(=O)[C@H](CO)NC(=O)[C@H](CCC(=O)O)NC(=O)[C@@H](N)Cc1ccccc1)[C@@H](C)O)C(=O)N[C@H](C(=O)N[C@@H](CC(N)=O)C(=O)N[C@@H](CCCNC(=N)N)C(N)=O)[C@@H](C)O` [HEL (34-45) with a C terminal amide] (H-FESNFNTQATNR-NH2), for which the “increase in response of 18N.30 compared to unmodified HEL (34-45)” value in test [1] turned out to be 250 fold. Moreover, the “increase in response of A6.A2 compared to unmodified HEL (34-45)” value in test [2] is given as 50 fold.

With `CC[C@H](C)[C@H](NC(=O)CNC(=O)[C@H](Cc1ccc(O)cc1)NC(=O)[C@H](CC(=O)O)NC(=O)[C@@H](N)CCCCN)C(=O)N[C@@H](CC(C)C)C(=O)N[C@@H](CCC(N)=O)C(=O)N[C@H](C(=O)N[C@@H](CC(N)=O)C(=O)N[C@@H](CO)C(=O)N[C@@H](CCCNC(=N)N)C(=O)N[C@@H](CCC(=O)O)C(=O)O)[C@@H](C)CC` [^+- 52-61^-+] (H-KDYGILQINSRE-OH), the “stimulatory ability, 3A9 T cell (in words)” value in test [3] (qualitative comparison) is given as “drastically reduced; also recorded: less active than HEL (52-61)”. In test [3] (relative shift in antigen concentration required for 50% maximal response, 52-61 = 1), the “Relative Stimulatory Capacity, T Cell 3A9” value is 0.3. The “Relative Stimulatory Capacity, T Cell 2A11” value in test [4] was found to be 10.
